Patent US20240279227A1, “FUSED HETEROCYCLIC DERIVATIVES” (Janssen Sciences Ireland Unlimited Company, priority 2021, published 2024)

Key:
[1] = Human liver microsome stability; assay type: in vitro ADME; settings: pooled human liver microsomes 0.5 mg/mL, 1 μM compound, NADPH 1 mM, pH 7.4, 37° C., 0-60 min
Summary of the method: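 Pooled human liver microsomes (0.5 mg/mL) incubated at 37 °C with 1 μM compound in 0.1 M phosphate pH 7.4, 1 mM MgCl2; 1 mM NADPH starts reaction. Samples quenched in acetonitrile at 0–60 min, analysed by LC-MS against internal standard; half-life from slope of ln peak-area ratio versus time.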

HepG2 or HepG2.117 cells = assay: Cytotoxicity, ATPlite Luminescence Assay; assay type: cell-based, human; settings: 3-days incubation unless marked with *, ATPlite viability
Summary of the method: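 Cells were exposed to compounds for 3 or 4 days, after which viability was determined by ATP-based luminescence (ATPlite).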

HBV = assay: Anti-HBV activity in HepG2.117 cell line (intracellular HBV DNA, real-time PCR); assay type: cell-based, hepatitis B virus; settings: HepG2.117 cells, HBV replication induced, 3 days of treatment, intracellular HBV DNA by real-time PCR
Summary of the method: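 HepG2.117 cells (Tet-off, doxycycline-free HBV replication) induced for HBV replication, then exposed to serially diluted compound for 3 days. Intracellular HBV DNA quantified by real-time PCR with HBV-specific primers and probe.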

Row | Compound | HLM Metabolism t1/2 [1] [h] | CC50 (HepG2 or HepG2.117 cells) [µM] | EC50 (HBV) [µM]
1 | CNC(=O)[C@@H]1CN(C(C)c2ccc(-c3nnnn3C)cc2)C(=O)c2c3c(nn21)C[C@@H](C)N(C(=O)c1ccc(Cl)c(Cl)c1)C3 (single isomer, unassigned) [Compound 29B, (3R,7S)-2-(3,4-dichlorobenzoyl)-N,3-dimethyl-9-((S*)-1-(4-(1-methyl-1H-tetrazol-5-yl)phenyl)ethyl)-10-oxo-1,2,3,4,7,8,9,10-octahydropyrido[4′,3′:3,4]pyrazolo[1,5-a]pyrazine-7-carboxamide] | >3 | > 50 | 0.082
2 | CNC(=O)[C@@H]1CN(C(C)c2ccc(OC(F)F)nc2)C(=O)c2c3c(nn21)C[C@@H](C)N(C(=O)c1ccc(Cl)c(Cl)c1)C3 (single isomer, unassigned) [Compound 11B, (3R,7S)-2-(3,4-dichlorobenzoyl)-9-((S*)-1-(6-(difluoromethoxy)pyridin-3-yl)ethyl)-N,3-dimethyl-10-oxo-1,2,3,4,7,8,9,10-octahydropyrido[4′,3′:3,4]pyrazolo[1,5-a]pyrazine-7-carboxamide] | >3 | 23.4 | 0.052
3 | CC(c1ccc(OC(F)F)cc1)N1C[C@@H](C(=O)NC2CC2)n2nc3c(c2C1=O)CN(C(=O)c1ccc(Cl)c(C#N)c1)[C@H](C)C3 (single isomer, unassigned) [Compound 26B, (3R,7S)-2-(4-chloro-3-cyanobenzoyl)-N-cyclopropyl-9-((S*)-1-(4-(difluoromethoxy)phenyl)ethyl)-3-methyl-10-oxo-1,2,3,4,7,8,9,10-octahydropyrido[4′,3′:3,4]pyrazolo[1,5-a]pyrazine-7-carboxamide] | 1.12 | > 50 | 0.09
4 | CNC(=O)[C@@H]1CN(C(C)c2ccc(-c3c(C)noc3C)nc2)C(=O)c2c3c(nn21)C[C@@H](C)N(C(=O)c1ccc(Cl)c(Cl)c1)C3 (single isomer, unassigned) [Compound 35B, (3R,7S)-2-(3,4-dichlorobenzoyl)-9-((S*)-1-(6-(3,5-dimethylisoxazol-4-yl)pyridin-3-yl)ethyl)-N,3-dimethyl-10-oxo-1,2,3,4,7,8,9,10-octahydropyrido[4′,3′:3,4]pyrazolo[1,5-a]pyrazine-7-carboxamide] | 2.17 | > 50 | 0.082
5 | CNC(=O)[C@@H]1CN(C(C)c2ccc(N3CCCC3=O)nc2)C(=O)c2c3c(nn21)C[C@@H](C)N(C(=O)c1ccc(Cl)c(Cl)c1)C3 (relative stereo) [Compound 34B, (3R,7S)-2-(3,4-dichlorobenzoyl)-N,3-dimethyl-O-oxo-9-((S*)-1-(6-(2-oxopyrrolidin-1-yl)pyridin-3-yl)ethyl)-1,2,3,4,7,8,9,10-octahydropyrido[4′,3′:3,4]pyrazolo[1,5-a]pyrazine-7-carboxamide] | >3 | > 50 | 0.049
6 | CNC(=O)[C@@H]1CN(C(C)c2ccc(C3CC3)nc2)C(=O)c2c3c(nn21)C[C@@H](C)N(C(=O)c1ccc(Cl)c(Cl)c1)C3 (single isomer, unassigned) [Compound 32B, (3R,7S)-9-((S*)-1-(6-cyclopropylpyridin-3-yl)ethyl)-2-(3,4-dichlorobenzoyl)-N,3-dimethyl-10-oxo-1,2,3,4,7,8,9,10-octahydropyrido[4′,3′:3,4]pyrazolo[1,5-a]pyrazine-7-carboxamide] | >3 | 48.7 | 0.011
